Experimental data reported in patent US20170037425A1, “METHOD FOR IMPROVING PLANT TRAIT” (SHANGHAI INSTITUTES FOR BIOLOGICAL SCIENCES, CHINESE …, priority 2012, published 2017).

Experiments:
[1] = Electron donation by pre-illuminated LEAT protein (NAD+/NADP+ reduction); assay type: biochemical
Experimental: FIG. 1. The effects of light on NAD^+ or NAPD^+ reduction by YFP.
It was reported that proteins such as GFP can function as electron donor to reduce the oxidized small compounds such as NAD^+, potassium ferricyanide, and some proteins such as cytochrome c, and FAD-containing proteins (Bogdanov A. M. et al, 2009, Nature Chemical Biology. 5:459-461), The invertors used E. coli to express and purify recombinant proteins. […] Quinone reduction under light was analyzed by monitoring the decrease of absorption at 436 nm.

[2] = In vitro H2O hydrolysis and oxygen evolution catalyzed by LEAT protein under light; assay type: biochemical; set-up: key to O2 evolution activity: +: similar O2 evolution activity as that of YFP; ++: higher O2 evolution activity than that of YFP by at least one order of magnitude; weak: lower activity than that of YFP by at least one order of magnitude; settings: for O2 evolution activity: water hydrolysis and O2 evolution under light, relative to YFP
Experimental: 1.85 ml of 50 mM phosphate buffer (pH6.5) was added in the reaction vessel of Clark-type oxygen electrode, then LEAT proteins (at a final concentration of 0.02-1 μg/ml) and 400 μM 2,3,5-trimethyl-1,4-benzoquinone (TMBQ) or other quinones were sequentially added into the buffer in dark. The oxygen evolution rate was measured under the light with corresponding excitation wave length for LEAT proteins and light intensity at 1-2 μmol m^−2 s^−1.

Brassica = assay: Growth, biomass and yield of transgenic Brassica; assay type: in vivo, Brassica napus L.; settings: T1 transgenic Brassica, vegetative stage
Text: FIG. 14. (A) WT, empty vector control (pHB) and mCherry transgenic Brassica (L1-L3) were germinated and grown for one week in the phytotron under white light (PPFD:250 μmol m^−2s^−1). Then the plants were moved and grown under white light, green light (PFD: 60 μmol m^−2s^−1) or red+blue light (red light PFD; 60 μmol m^−2s^−1, blue light PFD; 10 μmol m^−2s^−1) for another 3 weeks and photos were taken, (B) Comparison of the fresh weights and dry weights of WT and mCherry transgenic Brassica grown under white light, green light or red+blue light for four weeks. Values in the figures are means±SD, for WT, n=10, for transgenic plant transformed with empty vector control pHB and mCherry, data were the averages of three independent lines and 10 plants for each line. **p≦0.01. (C) Net photosynthetic rate of WT and mCherry transgenic Brassica measured under different light qualities. Nine-week-old WT and mCherry transgenic Brassica grown in the phytotron (PPFD: 250 μmol m^−2s^−1) were transferred and treated with different qualities of light for 4 days and net photosynthetic rate was measured. (D) Net photosynthetic rate of WT and mCherry transgenic Brassica grow in the natural field measured under different PPFD as light source. Net photosynthetic rate was measured in situ between 10:00 am and 12:00 pm. […] FIG. 15. (A) Measurement of the fresh weight and dry weight per plant of 7-week-old WT and mCherry transgenic Brassica plants grown in the natural field conditions. Values in the figures are means±SD, n=10. *p≦0.05, **p≦0.01. (B) Comparison of the plant size, silique size, seed size, grain yield per plant and 1000-seed weight at the harvesting time. Values in the figures are means±SD, n=10. *p≦0.05, **p≦0.01. Wild type (WT), transgenic Brassica with empty vector (pHB) and mCherry transgenic Brassica (L1-L3) were germinated in the phytotron under white light (light intensity: 250 μmol m^−2s^−1) for 1 week. Then the plants were transferred and continued to grow under white light, green light (light intensity: 60 μmol m^−2s^−1), red+blue light (intensity of red light: 60 μmol m^−2s^−1; intensity of blue light: 10 μmol m^−2s^−1). The […] were taken three weeks after transfer.

| Substance | O2 evolution activity [2] | plant growth vs WT (Brassica) | also measured |
| --- | --- | --- | --- |
| YFP: yellow fluorescent protein, amino acid sequence SEQ ID NO: 8 | + |  | function as electron donor under light [1]: cannot continuously provide electrons under light; water photohydrolysis and O2 evolution activity under light ([2]; TMBQ substituted with DQ or UQ): does not have water photohydrolysis and O2 evolution activity; activity of water hydrolysis among the quinones tested (order) ([2]; different quinones, under light): TMBQ>DMBQ2>MBQ>DMBQ1 |
| eqFP611: fluorescent protein from Entacmaea quadricolor (AY130757), SEQ ID NO: 30 | + |  |  |
| mCherrymu3: mCherry mutant S151C S152C K167M, SEQ ID NO: 22 |  | grow better than WT | O2 evolution rate, increase ([2]; vs non-mutated protein, under light): 6 folds |
| mCherrymu4: mCherry mutant S151C S152C K167M I202A, SEQ ID NO: 24 |  | grow better than WT |  |
| mCherrymu5: mCherry mutant S151C S152C H166N K167M I202A, SEQ ID NO: 26 |  | grow better than WT |  |
